{"source": "patent US7417156B2", "about": "“Orally active, antimalarial, anticancer, artemisinin-derived trioxane dimers” (Johns Hopkins University, priority 2002, dated 2008)", "key": {"KM12": {"test_system": "KM12", "assay": "NCI 60 cell line panel screen (SRB)", "assay_type": "cell-based, human"}, "OVCAR-3": {"test_system": "OVCAR-3", "assay": "NCI 60 cell line panel screen (SRB)", "assay_type": "cell-based, human"}, "OVCAR-8": {"test_system": "OVCAR-8", "assay": "NCI 60 cell line panel screen (SRB)", "assay_type": "cell-based, human"}, "60 cell line panel": {"test_system": "60 cell line panel", "assay_type": "cell-based"}, "SF-295": {"test_system": "SF-295", "assay": "NCI 60 cell line panel screen (SRB)", "assay_type": "cell-based, human"}, "HS 578T": {"test_system": "HS 578T", "assay": "NCI 60 cell line panel screen (SRB)", "assay_type": "cell-based, human"}, "[1]": {"test_system": "P. berghei NY malaria parasite", "assay": "Antimalarial efficacies in vivo in mice", "conditions": "for ED50: Plasmodium berghei, read-out: ED50", "text": "Neither overt toxicity nor behavioral modification was observed due to drug administration in any of these mouse experiments."}, "[2]": {"assay": "Solubility in water at pH 7.4", "assay_type": "physicochemical"}, "[3]": {"conditions": "mean value over the 60 cell line panel"}}, "note": "Read-outs that look alike come from different tables or passages of the source.", "data": [{"smiles": "C[C@@H]1CC[C@H]2[C@@H](C)C(CC(O)(COC(=O)CCC(=O)O)CC3OC4O[C@]5(C)CC[C@H]6[C@H](C)CC[C@@H]([C@H]3C)C46OO5)OC3O[C@]4(C)CCC1C32OO4", "note": "(some centres unmarked) [Compound 9, tertiary alcohol primary succinate ester]", "values": [{"measurement": "Log10GI50", "setting": "KM12; Colon Cancer, KM12", "value": "<−8.30"}, {"measurement": "Log10LC50", "setting": "KM12; KM12 (Colon Cancer), LC50: PG=−50", "value": "−4.36", "unit": "log10M"}, {"measurement": "Log10TGI50", "setting": "KM12; KM12 (Colon Cancer), TGI: PG=0", "value": "<−8.30", "unit": "log10M"}, {"measurement": "Log10LC50", "setting": "OVCAR-3; OVCAR-3 (Ovarian Cancer), LC50: PG=−50", "value": ">−4.30", "unit": "log10M"}, {"measurement": "Log10TGI50", "setting": "OVCAR-3; OVCAR-3 (Ovarian Cancer), TGI: PG=0", "value": "<−8.30", "unit": "log10M"}, {"measurement": "Log10GI50", "setting": "OVCAR-3; Ovarian Cancer, OVCAR-3", "value": "<−8.30"}, {"measurement": "Log10LC50", "setting": "OVCAR-8; OVCAR-8 (Ovarian Cancer), LC50: PG=−50", "value": ">−4.30", "unit": "log10M"}, {"measurement": "Log10TGI50", "setting": "OVCAR-8; OVCAR-8 (Ovarian Cancer), TGI: PG=0", "value": ">−4.30", "unit": "log10M"}, {"measurement": "Log10GI50", "setting": "OVCAR-8; Ovarian Cancer, OVCAR-8", "value": "−5.12"}, {"measurement": "Log10GI50 Delta", "setting": "60 cell line panel", "value": 1.28}, {"measurement": "Log10GI50 Range", "setting": "60 cell line panel", "value": 3.94}, {"measurement": "Log10LC50 Delta", "setting": "60 cell line panel; 60 cell line panel", "value": 0.29}, {"measurement": "Log10LC50 Range", "setting": "60 cell line panel; 60 cell line panel", "value": 0.30}, {"measurement": "Log10TGI50 Delta", "setting": "60 cell line panel; 60 cell line panel", "value": 3.58}, {"measurement": "Log10TGI50 Range", "setting": "60 cell line panel; 60 cell line panel", "value": 4.00}, {"measurement": "growth inhibition in words", "setting": "60 cell line panel; colon cancer KM12, ovarian cancer OVCAR 3, breast cancer MDA-MB-435", "value": "selectively and strong inhibitory"}, {"measurement": "Log10GI50 MG MID", "setting": "60 cell line panel; mean over panel", "value": "−7.02"}, {"measurement": "Log10LC50 MG MID", "setting": "60 cell line panel; [3]", "value": "−4.31", "unit": "log10M"}, {"measurement": "Log10TGI50 MG MID", "setting": "60 cell line panel; [3]", "value": "−4.72", "unit": "log10M"}, {"measurement": "Log10GI50", "setting": "SF-295; CNS Cancer, SF-295", "value": "<−8.30"}, {"measurement": "Log10LC50", "setting": "SF-295; SF-295 (CNS Cancer), LC50: PG=−50", "value": "−4.60", "unit": "log10M"}, {"measurement": "Log10TGI50", "setting": "SF-295; SF-295 (CNS Cancer), TGI: PG=0", "value": "<−8.30", "unit": "log10M"}, {"measurement": "Log10GI50", "setting": "HS 578T; Breast Cancer, HS 578T", "value": "−4.36"}, {"measurement": "Log10LC50", "setting": "HS 578T; HS 578T (Breast Cancer), LC50: PG=−50", "value": ">−4.30", "unit": "log10M"}, {"measurement": "Log10TGI50", "setting": "HS 578T; HS 578T (Breast Cancer), TGI: PG=0", "value": ">−4.30", "unit": "log10M"}, {"measurement": "ED50", "setting": "[1]; route IV", "value": 2.4, "unit": "mg/kg"}, {"measurement": "ED50", "setting": "[1]; route PO", "value": 4.8, "unit": "mg/kg"}, {"measurement": "ED90", "setting": "[1]; route IV", "value": 11.0, "unit": "mg/kg × 4"}, {"measurement": "% Parasite Supression at 10 mg/kg", "setting": "[1]; route IV", "value": 83.4, "unit": "%"}, {"measurement": "ED90", "setting": "[1]; route PO", "value": 34.0, "unit": "mg/kg × 4"}, {"measurement": "% Parasite Supression at 10 mg/kg", "setting": "[1]; route PO", "value": 55.4, "unit": "%"}, {"measurement": "water solubility relative to artelinic acid", "setting": "[2]", "value": "~30", "unit": "times"}]}]}
